Experimental data published in patent US20240208956A1, “1,3,4-OXADIAZOLE THIOCARBONYL COMPOUNDS AS HISTONE DEACETYLASE 6 INHIBITOR, AND PHARMACEUTICAL COMPOSITION COMPRISING THE SAME” (CHONG KUN DANG PHARMACEUTICAL CORP., priority 2021, published 2024).

What was measured:
[1] = target: HDAC6 human recombinant (Homo sapiens (Human), UniProt Q9UBN7); assay: HDAC enzyme activity inhibition (in vitro), HDAC6 fluorimetric assay; format: biochemical; conditions: samples at 0.1-1000 nM; 37° C. 60 minutes; fluorescence Ex 390 nm, Em 460 nm
Sequence of HDAC6 human recombinant (Q9UBN7 whole entry): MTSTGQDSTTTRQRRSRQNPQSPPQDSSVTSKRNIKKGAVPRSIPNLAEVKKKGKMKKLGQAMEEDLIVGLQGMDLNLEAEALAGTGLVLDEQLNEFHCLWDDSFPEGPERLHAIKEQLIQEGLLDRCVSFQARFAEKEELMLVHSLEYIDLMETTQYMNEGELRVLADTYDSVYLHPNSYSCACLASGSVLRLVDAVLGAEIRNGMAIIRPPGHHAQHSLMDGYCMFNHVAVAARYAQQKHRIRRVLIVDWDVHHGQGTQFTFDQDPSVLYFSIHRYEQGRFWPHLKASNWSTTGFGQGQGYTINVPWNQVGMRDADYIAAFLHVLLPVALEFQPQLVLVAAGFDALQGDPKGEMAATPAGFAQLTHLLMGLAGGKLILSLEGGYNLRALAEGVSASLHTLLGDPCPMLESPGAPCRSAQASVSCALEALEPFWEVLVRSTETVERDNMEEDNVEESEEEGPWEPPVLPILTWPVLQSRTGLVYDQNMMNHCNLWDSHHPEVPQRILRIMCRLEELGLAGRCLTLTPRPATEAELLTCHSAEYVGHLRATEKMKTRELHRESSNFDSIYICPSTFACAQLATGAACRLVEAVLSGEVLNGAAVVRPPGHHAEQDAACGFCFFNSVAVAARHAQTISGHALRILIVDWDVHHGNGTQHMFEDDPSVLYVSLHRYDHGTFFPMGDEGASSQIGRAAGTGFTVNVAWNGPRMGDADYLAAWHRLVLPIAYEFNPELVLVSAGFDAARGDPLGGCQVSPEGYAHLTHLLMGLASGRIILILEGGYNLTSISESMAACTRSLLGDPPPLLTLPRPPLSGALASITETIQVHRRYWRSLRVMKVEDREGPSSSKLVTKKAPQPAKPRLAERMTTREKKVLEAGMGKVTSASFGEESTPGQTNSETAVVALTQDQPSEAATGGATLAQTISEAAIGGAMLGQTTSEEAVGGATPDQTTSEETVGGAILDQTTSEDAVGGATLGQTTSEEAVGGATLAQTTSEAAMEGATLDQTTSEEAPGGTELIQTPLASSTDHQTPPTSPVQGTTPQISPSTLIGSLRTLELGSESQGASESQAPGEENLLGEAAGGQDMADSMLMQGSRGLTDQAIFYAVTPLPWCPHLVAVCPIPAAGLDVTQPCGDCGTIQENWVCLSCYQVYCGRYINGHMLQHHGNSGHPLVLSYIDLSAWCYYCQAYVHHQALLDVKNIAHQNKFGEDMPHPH
Method: Confirmation of HDAC Enzyme Activity Inhibition (In Vitro)
(§1) An HDAC enzyme inhibitory capacity of test material was measured by using HDAC1 Fluorimetric Drug Discovery Assay Kit (Enzolifesciences: BML-AK511) and HDAC6 human recombinant (Calbiochem: 382180). For a HDAC1 assay, samples were treated at a concentration of 100 nM, 1000 nM and 10000 nM. For an HDAC6 assay, samples were treated at a concentration of 0.1 nM, 1 nM, 10 nM, 100 nM and 1000 nM. After the sample treatment, a reaction was continued at 37° C. for 60 minutes, treated with a developer, and subjected to reaction at 37° C. for 30 minutes, after which fluorescence intensity (Ex 390 nm, Em 460 nm) was measured by using FlexStation3 (Molecular device). For final result values, each […] value was calculated with GraphPad Prism 4.0 program.

[2] = target: HDAC1 (Homo sapiens (Human), UniProt Q13547); assay: HDAC enzyme activity inhibition (in vitro), HDAC1 Fluorimetric Drug Discovery Assay Kit; format: biochemical; conditions: samples at 100, 1000 and 10000 nM; 37° C. 60 minutes; fluorescence Ex 390 nm, Em 460 nm
Sequence of HDAC1 (Q13547 whole entry): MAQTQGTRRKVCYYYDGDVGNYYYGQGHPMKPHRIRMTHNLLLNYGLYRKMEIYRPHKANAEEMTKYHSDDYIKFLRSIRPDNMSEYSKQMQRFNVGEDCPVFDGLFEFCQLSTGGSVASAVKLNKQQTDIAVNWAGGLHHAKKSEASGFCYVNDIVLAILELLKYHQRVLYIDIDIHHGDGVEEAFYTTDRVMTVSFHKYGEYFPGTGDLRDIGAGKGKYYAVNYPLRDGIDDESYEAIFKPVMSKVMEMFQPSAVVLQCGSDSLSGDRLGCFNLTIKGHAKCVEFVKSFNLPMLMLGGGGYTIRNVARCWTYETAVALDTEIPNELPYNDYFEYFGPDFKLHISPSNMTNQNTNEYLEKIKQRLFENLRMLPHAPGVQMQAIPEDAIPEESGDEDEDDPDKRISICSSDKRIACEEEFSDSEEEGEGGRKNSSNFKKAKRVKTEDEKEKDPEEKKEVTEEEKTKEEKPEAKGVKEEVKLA
Method: Experimental Example 1. Confirmation of HDAC Enzyme Activity Inhibition (In Vitro)
as §1

SMILES	IC50 [1] [nM]	IC50 [2] [µM]
CN1CC2(C1)CN(C(=S)N(Cc1ccc(-c3nnc(C(F)F)o3)cc1)c1cccc(F)c1)C2 [Compound 14, N-(4-(5-(difluoromethyl)-1,3,4-oxadiazol-2-yl)benzyl)-N-(3-fluorophenyl)-6-methyl-2,6-diazaspiro[3.3]heptan-2-carbothioamide]	39	> 10
Fc1ccc(N(Cc2ccc(-c3nnc(C(F)F)o3)cc2F)C(=S)N2C[C@@H]3C[C@H]2CN3C2COC2)cc1F [Compound 43, (1S,4S)—N-(4-(5-(difluoromethyl)-1,3,4-oxadiazol-2-yl)-2-fluorobenzyl)-N-(3,4-difluorophenyl)-5-(oxetan-3-yl)-2,5-diazabicyclo[2.2.1]heptan-2-carbothioamide]	77	> 10
CN1CCC2(CC1)CN(C(=S)N(Cc1ccc(-c3nnc(C(F)F)o3)cc1F)c1ccc(F)c(F)c1)C2 [Compound 46, N-(4-(5-(difluoromethyl)-1,3,4-oxadiazol-2-yl)-2-fluorobenzyl)-N-(3,4-difluorophenyl)-7-methyl-2,7-diazaspiro[3.5]nonan-2-carbothioamide]	28	> 10
CN1CC2(C1)CN(C(=S)N(Cc1ccc(-c3nnc(C(F)F)o3)cc1)c1ccc(F)c(F)c1)C2 [Compound 30, N-(4-(5-(difluoromethyl)-1,3,4-oxadiazol-2-yl)benzyl)-N-(3,4-difluorophenyl)-6-methyl-2,6-diazaspiro[3.3]heptan-2-carbothioamide]	24	> 10
Fc1ccc(N(Cc2ccc(-c3nnc(C(F)F)o3)cc2F)C(=S)N2CCC3(CC2)CN(C2COC2)C3)cc1F [Compound 45, N-(4-(5-(difluoromethyl)-1,3,4-oxadiazol-2-yl)-2-fluorobenzyl)-N-(3,4-difluorophenyl)-2-(oxetan-3-yl)-2,7-diazaspiro[3.5]nonan-7-carbothioamide]	196	> 10
CN1CC2(C1)CN(C(=S)N(Cc1ccc(-c3nnc(C(F)F)o3)cc1F)c1ccc(F)c(F)c1)C2 [Compound 13, N-(4-(5-(difluoromethyl)-1,3,4-oxadiazol-2-yl)-2-fluorobenzyl)-N-(3,4-difluorophenyl)-6-methyl-2,6-diazaspiro[3.3]heptan-2-carbothioamide]	76	> 10
CN1C[C@@H]2C[C@H]1CN2C(=S)N(Cc1ccc(-c2nnc(C(F)F)o2)cc1F)c1ccc(F)cc1 [Compound 39, (1S,4S)—N-(4-(5-(difluoromethyl)-1,3,4-oxadiazol-2-yl)-2-fluorobenzyl)-N-(4-fluorophenyl)-5-methyl-2,5-diazabicyclo[2.2.1]heptan-2-carbothioamide]	30	> 10
Fc1cccc(N(Cc2ccc(-c3nnc(C(F)F)o3)cc2)C(=S)N2CC3(C2)CN(C2COC2)C3)c1 [Compound 15, N-(4-(5-(difluoromethyl)-1,3,4-oxadiazol-2-yl)benzyl)-N-(3-fluorophenyl)-6-(oxetan-3-yl)-2,6-diazaspiro[3.3]heptan-2-carbothioamide]	54	> 10
CN1CC2(C1)CN(C(=S)N(Cc1ccc(-c3nnc(C(F)F)o3)cc1F)c1ccc(F)cc1F)C2 [Compound 12, N-(4-(5-(difluoromethyl)-1,3,4-oxadiazol-2-yl)-2-fluorobenzyl)-N-(2,4-difluorophenyl)-6-methyl-2,6-diazaspiro[3.3]heptan-2-carbothioamide]	135	> 10
CN1CC2(C1)CN(C(=S)N(Cc1ccc(-c3nnc(C(F)F)o3)cc1F)c1ccc(F)cc1)C2 [Compound 17, N-(4-(5-(difluoromethyl)-1,3,4-oxadiazol-2-yl)-2-fluorobenzyl)-N-(4-fluorophenyl)-6-methyl-2,6-diazaspiro[3.3]heptan-2-carbothioamide]	41	> 10
CC(=O)N1CC2(C1)CN(C(=S)N(Cc1ccc(-c3nnc(C(F)F)o3)cc1F)c1ccc(F)c(F)c1)C2 [Compound 33, 6-acetyl-N-(4-(5-(difluoromethyl)-1,3,4-oxadiazol-2-yl)-2-fluorobenzyl)-N-(3,4-difluorophenyl)-2,6-diazaspiro[3.3]heptan-2-carbothioamide]	35	> 10
FC(F)c1nnc(-c2ccc(CN(C(=S)N3CCOCC3)c3ccccc3)cc2)o1 [Compound 3, N-(4-(5-(difluoromethyl)-1,3,4-oxadiazol-2-yl)benzyl)-N-phenylmorpholin-4-carbothioamide]	37	> 10
CC(C)N1CC2(CN(C(=S)N(Cc3ccc(-c4nnc(C(F)F)o4)cc3)c3cccc(F)c3)C2)C1 [Compound 16, N-(4-(5-(difluoromethyl)-1,3,4-oxadiazol-2-yl)benzyl)-N-(3-fluorophenyl)-6-isopropyl-2,6-diazaspiro[3.3]heptan-2-carbothioamide]	63	> 10
CC(C)N1C[C@@H]2C[C@H]1CN2C(=S)N(Cc1ccc(-c2nnc(C(F)F)o2)cc1F)c1ccc(F)cc1 [Compound 40, (1S,4S)—N-(4-(5-(difluoromethyl)-1,3,4-oxadiazol-2-yl)-2-fluorobenzyl)-N-(4-fluorophenyl)-5-isopropyl-2,5-diazabicyclo[2.2.1]heptan-2-carbothioamide]	55	> 10
CN1CC2(C1)CN(C(=S)N(Cc1ccc(-c3nnc(C(F)F)o3)cc1F)c1ccc(Cl)c(Cl)c1)C2 [Compound 23, N-(3,4-dichlorophenyl)-N-(4-(5-(difluoromethyl)-1,3,4-oxadiazol-2-yl)-2-fluorobenzyl)-6-methyl-2,6-diazaspiro[3.3]heptan-2-carbothioamide]	62	> 10

More lines, now with the values ahead:

IC50 [1] [nM]	IC50 [2] [µM]	SMILES
77	> 10	CC(C)N1CC2(CN(C(=S)N(Cc3ccc(-c4nnc(C(F)F)o4)cc3F)c3ccc(F)c(Cl)c3)C2)C1 [Compound 28, N-(3-chloro-4-fluorophenyl)-N-(4-(5-(difluoromethyl)-1,3,4-oxadiazol-2-yl)-2-fluorobenzyl)-6-isopropyl-2,6-diazaspiro[3.3]heptan-2-carbothioamide]
73	> 10	Fc1ccc(N(Cc2ccc(-c3nnc(C(F)F)o3)cc2F)C(=S)N2C[C@@H]3C[C@H]2CN3C2COC2)cc1 [Compound 41, (1S,4S)—N-(4-(5-(difluoromethyl)-1,3,4-oxadiazol-2-yl)-2-fluorobenzyl)-N-(4-fluorophenyl)-5-(oxetan-3-yl)-2,5-diazabicyclo[2.2.1]heptan-2-carbothioamide]
80	> 10	CN1CC2(CCN(C(=S)N(Cc3ccc(-c4nnc(C(F)F)o4)cc3F)c3ccc(F)c(F)c3)CC2)C1 [Compound 44, N-(4-(5-(difluoromethyl)-1,3,4-oxadiazol-2-yl)-2-fluorobenzyl)-N-(3,4-difluorophenyl)-2-methyl-2,7-diazaspiro[3.5]nonan-7-carbothioamide]
51	> 10	Fc1cccc(N(Cc2ccc(-c3nnc(C(F)F)o3)cc2F)C(=S)N2CC3(C2)CN(C2COC2)C3)c1 [Compound 38, N-(4-(5-(difluoromethyl)-1,3,4-oxadiazol-2-yl)-2-fluorobenzyl)-N-(3-fluorophenyl)-6-(oxetan-3-yl)-2,6-diazaspiro[3.3]heptan-2-carbothioamide]
138	> 10	Fc1cc(-c2nnc(C(F)F)o2)ccc1CN(C(=S)c1ccncc1)c1ccccc1 [Compound 9, N-(4-(5-(difluoromethyl)-1,3,4-oxadiazol-2-yl)-2-fluorobenzyl)-N-phenylpyridin-4-carbothioamide]
83	> 10	Fc1ccc(N(Cc2ccc(-c3nnc(C(F)F)o3)cc2)C(=S)N2CC3(C2)CN(C2COC2)C3)cc1 [Compound 22, N-(4-(5-(difluoromethyl)-1,3,4-oxadiazol-2-yl)benzyl)-N-(4-fluorophenyl)-6-(oxetan-3-yl)-2,6-diazaspiro[3.3]heptan-2-carbothioamide]
83	> 10	Fc1cc(-c2nnc(C(F)F)o2)ccc1CN(C(=S)N1CC2(C1)CN(C1COC1)C2)c1ccc(Cl)c(Cl)c1 [Compound 24, N-(3,4-dichlorophenyl)-N-(4-(5-(difluoromethyl)-1,3,4-oxadiazol-2-yl)-2-fluorobenzyl)-6-(oxetan-3-yl)-2,6-diazaspiro[3.3]heptan-2-carbothioamide]
61	> 10	CC(C)N1CC2(CN(C(=S)N(Cc3ccc(-c4nnc(C(F)F)o4)cc3F)c3ccc(F)cc3)C2)C1 [Compound 18, N-(4-(5-(difluoromethyl)-1,3,4-oxadiazol-2-yl)-2-fluorobenzyl)-N-(4-fluorophenyl)-6-isopropyl-2,6-diazaspiro[3.3]heptan-2-carbothioamide]
37	> 10	CN1CCN(C(=S)N(Cc2ccc(-c3nnc(C(F)F)o3)cc2)c2ccccc2)CC1 [Compound 4, N-(4-(5-(difluoromethyl)-1,3,4-oxadiazol-2-yl)benzyl)-4-methyl-N-phenylpiperazin-1-carbothioamide]
